According to PubChem BioAssay (NCI):
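48-hour exposure; five concentrations; linearly interpolated endpoints. At the TGI there is no net growth.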

Experiments:
Assay in all cases: NCI tumour cell line growth inhibition, 48 h
SNB-78 CNS = tested on: SNB-78 CNS
SF-295 CNS = tested on: SF-295 CNS
EKVX NSCLC = tested on: EKVX NSCLC
KM12 colon = tested on: KM12 colon
786-0 renal = tested on: 786-0 renal
HCC-2998 colon = tested on: HCC-2998 colon
M14 melanoma = tested on: M14 melanoma
A549 NSCLC = tested on: A549 NSCLC
DMS 114 small cell lung = tested on: DMS 114 small cell lung
CCRF-CEM leukemia = tested on: CCRF-CEM leukemia
A498 renal = tested on: A498 renal
SK-MEL-2 melanoma = tested on: SK-MEL-2 melanoma
NCI-H23 lung = tested on: NCI-H23 lung
SN12C renal = tested on: SN12C renal
ACHN renal = tested on: ACHN renal
SK-MEL-5 melanoma = tested on: SK-MEL-5 melanoma
DMS 273 small cell lung = tested on: DMS 273 small cell lung
XF 498 CNS = tested on: XF 498 CNS
CAKI-1 renal = tested on: CAKI-1 renal
MOLT-4 leukemia = tested on: MOLT-4 leukemia
SF-539 CNS = tested on: SF-539 CNS
NCI-H226 lung = tested on: NCI-H226 lung
RXF 393 renal = tested on: RXF 393 renal
UACC-62 melanoma = tested on: UACC-62 melanoma
M19-MEL melanoma = tested on: M19-MEL melanoma
KM20L2 colon = tested on: KM20L2 colon
LOX IMVI melanoma = tested on: LOX IMVI melanoma
HCT-116 colon = tested on: HCT-116 colon
TK-10 renal = tested on: TK-10 renal
SNB-75 CNS = tested on: SNB-75 CNS
HL-60(TB) leukemia = tested on: HL-60(TB) leukemia
UACC-257 melanoma = tested on: UACC-257 melanoma
MALME-3M melanoma = tested on: MALME-3M melanoma
IGROV1 ovarian = tested on: IGROV1 ovarian
OVCAR-4 ovarian = tested on: OVCAR-4 ovarian
SK-OV-3 ovarian = tested on: SK-OV-3 ovarian
K-562 leukemia = tested on: K-562 leukemia
SNB-19 CNS = tested on: SNB-19 CNS
HOP-62 NSCLC = tested on: HOP-62 NSCLC
U251 CNS = tested on: U251 CNS
DLD-1 colon = tested on: DLD-1 colon
LXFL 529 NSCLC = tested on: LXFL 529 NSCLC
RPMI-8226 leukemia = tested on: RPMI-8226 leukemia
HOP-18 NSCLC = tested on: HOP-18 NSCLC
COLO 205 colon = tested on: COLO 205 colon
SK-MEL-28 melanoma = tested on: SK-MEL-28 melanoma
SF-268 CNS = tested on: SF-268 CNS
OVCAR-3 ovarian = tested on: OVCAR-3 ovarian
SW-620 colon = tested on: SW-620 colon
NCI-H460 lung = tested on: NCI-H460 lung
RXF-631 renal = tested on: RXF-631 renal
HOP-92 NSCLC = tested on: HOP-92 NSCLC
UO-31 renal = tested on: UO-31 renal
OVCAR-8 ovarian = tested on: OVCAR-8 ovarian
OVCAR-5 ovarian = tested on: OVCAR-5 ovarian
NCI-H522 lung = tested on: NCI-H522 lung
SR leukemia = tested on: SR leukemia
HT29 colon = tested on: HT29 colon

Cc1ccc(NC(=O)CC2Sc3ccccc3NC2=O)c(C)c1 (stereo not drawn)
TGI (SNB-78 CNS): 63.2 µM
TGI (SF-295 CNS): 40.2 µM
TGI (EKVX NSCLC): > 100 µM
TGI (KM12 colon): 20.1 µM
TGI (786-0 renal): 26.5 µM
TGI (HCC-2998 colon): 27.3 µM
TGI (M14 melanoma): 36.5 µM
TGI (A549 NSCLC): 39.7 µM
TGI (DMS 114 small cell lung): 51.7 µM
TGI (CCRF-CEM leukemia): 78.4 µM
TGI (A498 renal): 30.1 µM
TGI (SK-MEL-2 melanoma): 18.2 µM
TGI (NCI-H23 lung): 33.7 µM
TGI (SN12C renal): > 100 µM
TGI (ACHN renal): 41 µM
TGI (SK-MEL-5 melanoma): 30.9 µM
TGI (DMS 273 small cell lung): 37.5 µM
TGI (XF 498 CNS): 37.5 µM
TGI (CAKI-1 renal): 63.3 µM
TGI (MOLT-4 leukemia): 72.9 µM
TGI (SF-539 CNS): 29.6 µM
TGI (NCI-H226 lung): 33.5 µM
TGI (RXF 393 renal): 31 µM
TGI (UACC-62 melanoma): 48.9 µM
TGI (M19-MEL melanoma): 48.2 µM
TGI (KM20L2 colon): 30.5 µM
TGI (LOX IMVI melanoma): > 100 µM
TGI (HCT-116 colon): 22 µM
TGI (TK-10 renal): 50.9 µM
TGI (SNB-75 CNS): 19.2 µM
TGI (HL-60(TB) leukemia): 8.35 µM
TGI (UACC-257 melanoma): 39.7 µM
TGI (MALME-3M melanoma): 47.7 µM
TGI (IGROV1 ovarian): > 100 µM
TGI (OVCAR-4 ovarian): 48.1 µM
TGI (SK-OV-3 ovarian): 33 µM
TGI (K-562 leukemia): 19 µM
TGI (SNB-19 CNS): 30.3 µM
TGI (HOP-62 NSCLC): 34 µM
TGI (U251 CNS): 33.1 µM
TGI (DLD-1 colon): 31 µM
TGI (LXFL 529 NSCLC): 71.1 µM
TGI (RPMI-8226 leukemia): 43.9 µM
TGI (HOP-18 NSCLC): 30.2 µM
TGI (COLO 205 colon): 38.7 µM
TGI (SK-MEL-28 melanoma): 75.9 µM
TGI (SF-268 CNS): 60.7 µM
TGI (OVCAR-3 ovarian): 28.6 µM
TGI (SW-620 colon): 56 µM
TGI (NCI-H460 lung): 32.4 µM
TGI (RXF-631 renal): 33.1 µM
TGI (HOP-92 NSCLC): 39.5 µM
TGI (UO-31 renal): 34.8 µM
TGI (OVCAR-8 ovarian): 37.4 µM
TGI (OVCAR-5 ovarian): 73 µM
TGI (NCI-H522 lung): 30.4 µM

CCOC(=O)N1CCC(=O)C(CNC23CC4CC(CC(C4)C2)C3)C1 (stereo not drawn)
TGI (SF-295 CNS): > 100 µM
TGI (EKVX NSCLC): > 100 µM
TGI (KM12 colon): > 100 µM
TGI (786-0 renal): 29.4 µM
TGI (A549 NSCLC): > 100 µM
TGI (SR leukemia): 51.6 µM
TGI (CCRF-CEM leukemia): 35.9 µM
TGI (A498 renal): > 100 µM
TGI (SK-MEL-2 melanoma): > 100 µM
TGI (NCI-H23 lung): > 100 µM
TGI (SN12C renal): > 100 µM
TGI (ACHN renal): 34.8 µM
TGI (SK-MEL-5 melanoma): > 100 µM
TGI (DMS 273 small cell lung): 52.9 µM
TGI (XF 498 CNS): 32.8 µM
TGI (MOLT-4 leukemia): 38.9 µM
TGI (SF-539 CNS): > 100 µM
TGI (NCI-H226 lung): > 100 µM
TGI (HT29 colon): 43.7 µM
TGI (RXF 393 renal): 33.2 µM
TGI (UACC-62 melanoma): > 100 µM
TGI (M19-MEL melanoma): 35.3 µM
TGI (KM20L2 colon): > 100 µM
TGI (LOX IMVI melanoma): 41.5 µM
TGI (TK-10 renal): > 100 µM
TGI (HL-60(TB) leukemia): > 100 µM
TGI (UACC-257 melanoma): 42.4 µM
TGI (MALME-3M melanoma): 37.7 µM
TGI (OVCAR-4 ovarian): 29 µM
TGI (SK-OV-3 ovarian): > 100 µM
TGI (K-562 leukemia): 31.2 µM
TGI (SNB-19 CNS): > 100 µM
TGI (HOP-62 NSCLC): > 100 µM
TGI (U251 CNS): > 100 µM
TGI (DLD-1 colon): 46.4 µM
TGI (LXFL 529 NSCLC): 33.3 µM
TGI (COLO 205 colon): > 100 µM
TGI (SK-MEL-28 melanoma): 32.1 µM
TGI (SF-268 CNS): > 100 µM
TGI (SW-620 colon): 39.5 µM
TGI (NCI-H460 lung): > 100 µM
TGI (RXF-631 renal): > 100 µM
TGI (HOP-92 NSCLC): 41 µM
TGI (UO-31 renal): > 100 µM
TGI (OVCAR-8 ovarian): 44.5 µM
TGI (OVCAR-5 ovarian): > 100 µM
TGI (NCI-H522 lung): 34 µM
